What all share (format): physicochemical
Series [1] can be described thus: Angle of repose (Japanese Pharmacopoeia). The note with it: compared with the monohydrous crystal. As to the method: Regarding the particles of the anhydrous crystal obtained in Production Example 1 and the monohydrous crystal, the angle of repose was measured in accordance with Angle of repose mentioned in the Japanese Pharmacopoeia, Seventeenth Edition.
A short description of series [2]: BET specific surface area by nitrogen adsorption method. The note with it: BET multipoint method, nitrogen gas. Here is the method:
The specific surface area was measured by a nitrogen adsorption method using Flow sorb II 2300 (Shimadzu Corporation). Specifically, the BET specific surface area was measured by a BET multipoint method by nitrogen adsorption under the following conditions: • Sample amount: 0.2 g • Deaeration condition: 150° C. (anhydrous), 80° C. (monohydrous) • Adsorption gas: nitrogen gas

The nature of series [3]: Measurement of solubility in distilled water (HPLC). The note with it: room temperature, shaken 1 hour, saturated solution. Here is the method:
After 10 mL of distilled water was put into 0.5 g of the anhydrous crystal obtained in Production Example 1 or the monohydrous crystal as a raw material, the solution was horizontally shaken with a shaker (manufactured by TAITEC CORPORATION, STRONG SHAKER SR-2DS) at room temperature and at a shaking speed of 150 strokes/min and a shaking width of 4 cm/stroke for 1 hour. Thereafter, a precipitate was confirmed to be remained, and centrifugation (3,000 rpm×10 minutes) was performed to take a supernatant, followed by filtration using a membrane filter to obtain a supernatant of a saturated solution. 2 mL of the supernatant of the saturated solution was weighed in a 20 mL volumetric flask to make a constant volume with a mobile phase, and this was used as a sample solution, followed by measurement of solubility under the following HPLC conditions: • Analyzer: HPLC ACQUITY Arc system (manufactured by Waters K. K.) • Mobile phase: acetonitrile/water/acetic acid=50/49.5/0.5, v/v • Detector: ultraviolet spectrophotometer λ=276 nm (1 Au/V) • Column: Nucleosil 5 C18 (4.6 φ×250 mm) (manufactured by MACHEREY-NAGEL GmbH & Co. KG) • Column temperature: 50° C. • Flow rate: 1.075 ml/min • Injection volume: 20 μL • Measurement time: 40 minutes

Series [4] in a line: Long diameter, short diameter and aspect ratio by particle shape image analyzer PITA-3. The note with it: for Aspect ratio (d50): long diameter (d50)/short diameter (d50). As to the method: Regarding the anhydrous crystal obtained in Production Example 1 and the monohydrous crystal as a raw material, the long diameter and the short diameter were measured using a particle shape image analyzer PITA-3 (SEISHIN ENTERPRISE Co., Ltd.), and the aspect ratio was calculated.
The longest diameter in the particle was regarded as the long diameter, and the shortest diameter in the particle was regarded as the short diameter. The aspect ratio was calculated by the following formula: Aspect ratio=long diameter/short diameter
Specifically, measurement was performed under the following conditions:
Carrier liquid: n-hexane+lecithin
Dispersion condition: ultrasonic wave for 5 minutes
Flow rate of first carrier liquid: 500.00 μL/second
Flow rate of second carrier liquid: 500.00 μL/second
Flow rate of sample dispersion liquid: 0.42 μL/second
Observation magnification: 10 times
Light control filter: None
Number of particles observed: 6,992 (anhydrous crystal) or 9,628 (monohydrous crystal)

Series [5] in a line: Tapped density and bulk density, powder tester (Japanese Pharmacopoeia Method 3). The following applies: 100 mL cylindrical container; for Tapped density: 100 times per 3 minutes. As to the method:
Regarding the anhydrous crystal obtained in Production Example 1 and the monohydrous crystal as a raw material, the bulk density and the tapped density were measured with a powder tester type A.B.D-72 (TSUTSUI SCIENTIFIC INSTRUMENTS Co., Ltd.) in accordance with of Method 3 (measuring vessel) of Determination of Bulk Density and Method 3 of Determination of Tapped Density mentioned in the Japanese Pharmacopoeia, Seventeenth Edition. Specifically, regarding the bulk density, an excess of a sample was freely fallen through the apparatus into a cylindrical container (volume of 100 mL, inner diameter of 5.05 cm) until a container overflowed. Then, the edge of a spatula standing vertically in contact with the top surface of the container was moved smoothly, and an excess of the sample was carefully slashed off from the top surface of the container. The bulk density was calculated by dividing the mass (g) of the sample in the container by a volume of 100 mL. The tapped density was, specifically, measured as a density when the sample was filled in a cylindrical container (volume of 100 mL, inner diameter of 5.05 cm) in the same manner as for the bulk density measurement and was fallen using the apparatus at a rate of 100 times per 3 minutes.

The nature of series [6]: Observation of particle shape by scanning electron microscopy. The note with it: SEM micrograph. From the text:
Micrographs of particles of the anhydrous crystal of the present invention and the monohydrous crystal were taken using scanning electron microscopy (SEM) (Hitachi, Ltd., S-3200N).

The values that follow come from patent US12473259B2, “Anhydrous crystal of monosodium n-(2-ethylsulfonylamino-5-trifluoromethyl-3-pyridyl)cyclohexane carboxamide” (ISHIHARA SANGYO KAISHA, LTD., priority 2019, dated 2025).

As for `CCS(=O)(=O)Nc1ncc(C(F)(F)F)cc1NC(=O)C1CCCCC1.[Na]` [Anhydrous crystal, monosodium N-(2-ethylsulfonylamino-5-trifluoromethyl-3-pyridyl)cyclohexane carboxamide], the Angle of repose entry in series [1] was “smaller than the angle of repose of the particle of the monohydrous crystal”. The same compound gave a Specific surface area in series [2] of 3.38 m^2/g. In addition, the Solubility in series [3] turned out to be 204 µg/mL. In series [4], the “Long diameter (d50)” value came out at 6.09 μm, the “Short diameter (d50)” value came out at 3.34 μm and the “Aspect ratio (d50)” value was found to be 1.82. In addition, in series [5], the Bulk density is given as 0.289 g/mL and the Tapped density came out at 0.367 g/mL. The Particle shape entry in series [6] is listed as “massive”.
In turn, `CCS(=O)(=O)Nc1ncc(C(F)(F)F)cc1NC(=O)C1CCCCC1.[Na]` [Monohydrous crystal, monosodium N-(2-ethylsulfonylamino-5-trifluoromethyl-3-pyridyl)cyclohexane carboxamide] displayed a Specific surface area in series [2] of 4.36 m^2/g. Moreover, the solubility at 1 h in series [3] (water, thermodynamic from solid) came out at 160 µg/mL. In addition, in series [4], the “Long diameter (d50)” value is reported as 15.80 μm, the “Short diameter (d50)” value is given as 3.19 μm and the “Aspect ratio (d50)” value is 4.95. In series [5], this compound displayed a Bulk density of 0.18 g/mL and a Tapped density of 0.207 g/mL. Further, in series [6], the Particle shape entry was “needle like”.
